# Measurements published in patent US20240366644A1, “ANTI-INFLAMMATORY APPLICATION OF GINSENOSIDE RD” (priority 2022, published 2024).
# Legend:
# [1] = test system: influenza virus-infected mice; experiment: TNF-α and IL-6 in serum and lung tissues of influenza virus-infected mice; format: in vivo, ICR mice
# Experimental: A lump of absorbent cotton was put into a beaker of 200-300 mL, and then poured with an appropriate amount of ether (till the absorbent cotton was wetted). The beaker filled with the absorbent cotton was inverted, and added with the mice for anesthesia. When the mice were extremely excited and then obviously weak, that is, the anesthesia depth was moderate, the mice were taken out. The ether-anesthetized mice were placed on their backs, with the mouse head facing upward, and then were subjected to intranasal infection. A diluted influenza virus was added to nostrils at 0.03 mL/nostril. A blank group was administrated with normal saline, instead of a virus suspension.
# The mice were randomly divided into four groups, that is, drug groups (10 mg/kg, 5 mg/kg), a model group, and a blank group were administrated by routine gavage on the day before infection, once a day; and the blank group and the model group were perfused with the equal volume of normal saline.
# On the Day 1, Day 3, Day 5 and Day 7 after influenza virus infection, venous blood was collected from the plexus ophthalmicus, and blood from mice in each group was preserved, subjected to serum separation, and stored in a refrigerator for later use.
# According to the instructions of a test kit, various detection and analysis were carried out, and TNF-α and IL-6 concentrations were calculated based on the standard detection and standard curve plotting.
# On the Day 1, Day 3, Day 5 and Day 7 after influenza virus infection, after the mice were killed by bleeding from the eyeballs, the whole lungs were picked, homogenized in a homogenizer according to a ratio of lung weight (g):normal saline (mL)=1:9, and centrifuged; and a supernatant was stored in the refrigerator for later use. According to the instructions of a test kit, various detection and analysis were carried out, and TNF-α and IL-6 concentrations were calculated based on the standard detection and standard curve plotting.
# [2] = test system: mice infected with COVID-19 Delta virus; experiment: Lung histopathology of mice infected with COVID-19 Delta virus; format: in vivo, hACE2 transgenic C57BL/6 mice; conditions: for Interstitial pneumonia Mild / Interstitial pneumonia Moderate / Interstitial pneumonia Severe / Pulmonary hemorrhage Mild / Pulmonary hemorrhage Moderate / Pulmonary hemorrhage Severe: number of mice with this degree (four per group), five days
# [3] = test system: COVID-19 Delta virus-infected mice; experiment: IL-1β and MCP-1 expression (RT-qPCR) in lung homogenates of COVID-19 Delta virus-infected mice; format: in vivo, hACE2 transgenic C57BL/6 mice; conditions: for IL-1β expression level in lung homogenate / MCP-1 expression level in lung homogenate: mRNA, blank group 1.00, Day 5 of infection
# [4] = test system: mice with acute lung injury; experiment: Inflammatory factors (ELISA) in lung tissue and alveolar lavage fluid of mice with LPS acute lung injury; format: in vivo, Balb/c mice; conditions: for IL-1β in alveolar lavage fluid / IL-1β in lung tissue / IL-6 in alveolar lavage fluid / IL-6 in lung tissue / IL-18 in alveolar lavage fluid / IL-18 in lung tissue / TNF-α in alveolar lavage fluid / TNF-α in lung tissue: 24 h after modeling
# Experimental: Balb/c male mice, weighing 20-22 g, were randomly divided into five groups according to body weights, with eight mice in each group: a blank control group (propylene glycol-0.5% carboxymethylcellulose sodium), a model group (LPS, 15 mg/kg), a ginsenoside Rd low-dose group (10 mg/kg), a ginsenoside Rd high-dose group (20 mg/kg), and a Dexamethasone group (5 mg/kg). Mice in each group were intraperitoneally injected; after 1 h of administration, except for the blank control group, the mice in each group were intratracheally instilled with 20 μg of LPS for modeling; and the blank control group was intratracheally instilled with an equal volume of PBS.
# After 1 h of administration, a mouse ALI model was established; each mouse was intraperitoneally injected with sodium pentobarbital at 30 mg/kg, anesthetized and fixed on an operating table dorsally; skin preparation was carried out on the neck; the skin was incised to expose the trachea; 20 μg of LPS was instilled into the trachea using a microglass syringe; and then the mouse was gently rotated head up on the operating table, such that the instilled liquid was evenly distributed in the mouse lungs, and the skin incision was sutured.
# After 24 h of modeling, anesthetized mice were intraperitoneally injected with sodium pentobarbital at 30 mg/kg; lung tissues of the mice were taken and rinsed repeatedly in pre-cooled normal saline; the lung tissues were blood-removed, wiped with filter paper, weighed, and added with normal saline according to a ratio of 1:9 (W:V=1 g:9 ml); a tissue homogenate was prepared with a homogenization machine under an ice water bath; and a supernatant of mouse lung tissue homogenate was taken.
# The mouse was anesthetized, and the trachea was separated; the whole lung was lavaged with 0.5 ml of pre-cooled normal saline, stayed for 1 min, and slowly pumped back with a syringe, and this process was repeated three times; and BLAF was collected, and centrifuged for 15 min at 4° C. and 1600 rpm/min.
# In strict accordance with the operating instructions of an enzyme-linked immunosorbent assay kit (ELISA), the contents of TNF-α, IL-1β, IL-6 and IL-18 in the supernatant of mouse lung tissue homogenate and the BLAF supernatant were detected.
# [5] = high-dose 10 mg/kg gavage once a day, 1 d after infection
# [6] = high-dose 10 mg/kg gavage once a day, 3 d after infection
# [7] = high-dose 10 mg/kg gavage once a day, 5 d after infection
# [8] = high-dose 10 mg/kg gavage once a day, 7 d after infection
# [9] = low-dose 5 mg/kg gavage once a day, 1 d after infection
# [10] = low-dose 5 mg/kg gavage once a day, 3 d after infection
# [11] = low-dose 5 mg/kg gavage once a day, 5 d after infection
# [12] = low-dose 5 mg/kg gavage once a day, 7 d after infection
# [13] = high-dose 20 mg/kg gavage once a day
# [14] = low-dose 10 mg/kg gavage once a day
# [15] = 10 mg/kg intraperitoneal 1 h before LPS
# [16] = 20 mg/kg intraperitoneal 1 h before LPS
structure (smiles),measurement,setting,value
"CC(C)=CCC[C@](C)(O[C@@H]1O[C@H](CO)[C@@H](O)[C@H](O)[C@H]1O)[C@H]1CC[C@]2(C)[C@@H]1[C@H](O)C[C@@H]1[C@@]3(C)CC[C@H](O[C@@H]4O[C@H](CO)[C@@H](O)[C@H](O)[C@H]4O[C@@H]4O[C@H](CO)[C@@H](O)[C@H](O)[C@H]4O)C(C)(C)[C@@H]3CC[C@]12C [Ginsenoside Rd, ginsenoside Rd]",Lung tissue IL-6,[1]; [5],43.56 ± 3.46 pg/mL
same,Lung tissue TNF-α,[1]; [5],31.34 ± 3.25 pg/mL
same,Serum IL-6,[1]; [5],46.21 ± 3.03 pg/mL
same,Serum TNF-α,[1]; [5],26.53 ± 1.02 pg/mL
same,Lung tissue IL-6,[1]; [6],43.47 ± 2.58 pg/mL
same,Lung tissue TNF-α,[1]; [6],32.09 ± 2.51 pg/mL
same,Serum IL-6,[1]; [6],46.52 ± 2.23 pg/mL
same,Serum TNF-α,[1]; [6],26.83 ± 2.04 pg/mL
same,Lung tissue IL-6,[1]; [7],42.39 ± 3.41 pg/mL
same,Lung tissue TNF-α,[1]; [7],31.97 ± 2.94 pg/mL
same,Serum IL-6,[1]; [7],45.79 ± 3.19 pg/mL
same,Serum TNF-α,[1]; [7],26.99 ± 1.55 pg/mL
same,Lung tissue IL-6,[1]; [8],42.21 ± 2.64 pg/mL
same,Lung tissue TNF-α,[1]; [8],30.08 ± 3.28 pg/mL
same,Serum IL-6,[1]; [8],45.23 ± 2.95 pg/mL
same,Serum TNF-α,[1]; [8],25.88 ± 1.66 pg/mL
same,Lung tissue IL-6,[1]; [9],46.86 ± 2.76 pg/mL
same,Lung tissue TNF-α,[1]; [9],32.98 ± 2.27 pg/mL
same,Serum IL-6,[1]; [9],47.15 ± 2.31 pg/mL
same,Serum TNF-α,[1]; [9],28.32 ± 1.21 pg/mL
same,Lung tissue IL-6,[1]; [10],46.29 ± 2.05 pg/mL
same,Lung tissue TNF-α,[1]; [10],34.72 ± 2.44 pg/mL
same,Serum IL-6,[1]; [10],47.22 ± 2.57 pg/mL
same,Serum TNF-α,[1]; [10],28.19 ± 1.27 pg/mL
same,Lung tissue IL-6,[1]; [11],46.21 ± 2.73 pg/mL
same,Lung tissue TNF-α,[1]; [11],32.14 ± 2.16 pg/mL
same,Serum IL-6,[1]; [11],46.62 ± 2.01 pg/mL
same,Serum TNF-α,[1]; [11],28.07 ± 1.43 pg/mL
same,Lung tissue IL-6,[1]; [12],46.52 ± 3.02 pg/mL
same,Lung tissue TNF-α,[1]; [12],30.86 ± 3.05 pg/mL
same,Serum IL-6,[1]; [12],46.59 ± 3.46 pg/mL
same,Serum TNF-α,[1]; [12],27.94 ± 1.16 pg/mL
same,inflammatory factors TNF-α and IL-6 after influenza virus infection,"[1]; mouse, in vivo",could down-regulate the related inflammatory factors
same,lung lesions caused by COVID-19 Delta virus,"[2]; 10 mg/kg and 20 mg/kg, compared with virus group",good improvement effects on lung lesions
same,pathological improvement of pulmonary hemorrhage and interstitial pneumonia compared with Dexamethasone,[2]; high-dose group 20 mg/kg,better than Dexamethasone
same,Interstitial pneumonia Mild,[2]; [13],4
same,Interstitial pneumonia Moderate,[2]; [13],0
same,Interstitial pneumonia Severe,[2]; [13],0
same,Pulmonary hemorrhage Mild,[2]; [13],4
same,Pulmonary hemorrhage Moderate,[2]; [13],0
same,Pulmonary hemorrhage Severe,[2]; [13],0
same,Interstitial pneumonia Mild,[2]; [14],2
same,Interstitial pneumonia Moderate,[2]; [14],2
same,Interstitial pneumonia Severe,[2]; [14],0
same,Pulmonary hemorrhage Mild,[2]; [14],2
same,Pulmonary hemorrhage Moderate,[2]; [14],2
same,Pulmonary hemorrhage Severe,[2]; [14],0
same,IL-1β and MCP-1 inflammatory factors,[3]; compared with the virus model group,significantly reduced
same,IL-1β expression level in lung homogenate,[3]; 10 mg/kg gavage,20.88 ± 6.42
same,MCP-1 expression level in lung homogenate,[3]; 10 mg/kg gavage,18.71 ± 13.75
same,IL-1β expression level in lung homogenate,[3]; 20 mg/kg gavage,10.13 ± 6.68
same,MCP-1 expression level in lung homogenate,[3]; 20 mg/kg gavage,7.15 ± 9.36
same,IL-1β in alveolar lavage fluid,[4]; [15],79.63 ± 21.33 ng/L
same,IL-1β in lung tissue,[4]; [15],80.23 ± 18.08 ng/L
same,IL-6 in alveolar lavage fluid,[4]; [15],39.37 ± 9.12 ng/L
same,IL-6 in lung tissue,[4]; [15],84.70 ± 10.84 ng/L
same,IL-18 in alveolar lavage fluid,[4]; [15],81.20 ± 21.27 ng/L
same,IL-18 in lung tissue,[4]; [15],94.03 ± 15.22 ng/L
same,TNF-α in alveolar lavage fluid,[4]; [15],344.09 ± 61.08 ng/L
same,TNF-α in lung tissue,[4]; [15],98.14 ± 14.48 ng/L
same,IL-1β in alveolar lavage fluid,[4]; [16],49.51 ± 6.89 ng/L
same,IL-1β in lung tissue,[4]; [16],30.52 ± 13.42 ng/L
same,IL-6 in alveolar lavage fluid,[4]; [16],29.53 ± 8.99 ng/L
same,IL-6 in lung tissue,[4]; [16],36.81 ± 13.45 ng/L
same,IL-18 in alveolar lavage fluid,[4]; [16],44.64 ± 17.91 ng/L
same,IL-18 in lung tissue,[4]; [16],37.54 ± 15.80 ng/L
same,TNF-α in alveolar lavage fluid,[4]; [16],186.04 ± 75.00 ng/L
same,TNF-α in lung tissue,[4]; [16],46.88 ± 19.52 ng/L
same,"contents of TNF-α, IL-1β, IL-6 and IL-18 in the lung tissues and BLAF",[4]; compared with the model group,significantly reduce
same,"effect on TNF-α, IL-1β, IL-6 and IL-18 contents compared with Dexamethasone","[4]; high-dose group 20 mg/kg, P<0.01",better than that of Dexamethasone
